Laboratory results published in ChEMBL document CHEMBL5038625, “Application of the dual-tail approach for the design and synthesis of novel Thiopyrimidine-Benzenesulfonamide hybrids as selective carbonic anhydrase inhibitors” (Eur J Med Chem, 2022).

Key:
UO-31 = test: Antiproliferative activity against human UO-31 cells assessed as cell growth inhibition at 10 uM incubated for 24 hrs by sulforhodamine B assay; assay type: functional; conditions: read-out: GI
SR = test: Antiproliferative activity against human SR cells assessed as cell growth inhibition at 10 uM incubated for 24 hrs by sulforhodamine B assay; assay type: functional; conditions: read-out: GI
NCI-H522 = test: Antiproliferative activity against human NCI-H522 cells assessed as cell growth inhibition at 10 uM incubated for 24 hrs by sulforhodamine B assay; assay type: functional; conditions: read-out: GI
SF-539 = test: Antiproliferative activity against human SF-539 cells assessed as cell growth inhibition at 10 uM incubated for 24 hrs by sulforhodamine B assay; assay type: functional; conditions: read-out: GI
MCF7 [1] = test: Antiproliferative activity against human MCF7 cells assessed as reduction in cell viability incubated for 24 hrs by sulforhodamine B assay; assay type: functional, cell-based; conditions: MCF7, 24 h
MDA-MB-231 [2] = test: Antiproliferative activity against human MDA-MB-231 cells assessed as cell growth inhibition at 10 uM incubated for 24 hrs by sulforhodamine B assay; assay type: functional; conditions: read-out: GI
Carbonic anhydrase 9 = Carbonic anhydrase 9 (Homo sapiens, UniProt Q16790); test: Inhibition of human CA9 preincubated for 15 mins by phenol red dye based stopped flow CO2 hydration assay
NCI-H226 = test: Antiproliferative activity against human NCI-H226 cells assessed as cell growth inhibition at 10 uM incubated for 24 hrs by sulforhodamine B assay; assay type: functional; conditions: read-out: GI
CAKI-1 = test: Antiproliferative activity against human CAKI-1 cells assessed as cell growth inhibition at 10 uM incubated for 24 hrs by sulforhodamine B assay; assay type: functional; conditions: read-out: GI
MDA-MB-231 [3] = test: Antiproliferative activity against human MDA-MB-231 cells assessed as reduction in cell viability incubated for 24 hrs by sulforhodamine B assay; assay type: functional, cell-based; conditions: MDA-MB-231, 24 h
UACC-62 = test: Antiproliferative activity against human UACC-62 cells assessed as cell growth inhibition at 10 uM incubated for 24 hrs by sulforhodamine B assay; assay type: functional; conditions: read-out: GI
K562 = test: Antiproliferative activity against human K562 cells assessed as cell growth inhibition at 10 uM incubated for 24 hrs by sulforhodamine B assay; assay type: functional; conditions: read-out: GI
T47D [4] = test: Antiproliferative activity against human T47D cells assessed as reduction in cell viability incubated for 24 hrs by sulforhodamine B assay; assay type: functional, cell-based
Malme-3M = test: Antiproliferative activity against human Malme-3M cells assessed as cell growth inhibition at 10 uM incubated for 24 hrs by sulforhodamine B assay; assay type: functional; conditions: read-out: GI
CCRF-CEM = test: Antiproliferative activity against human CCRF-CEM cells assessed as cell growth inhibition at 10 uM incubated for 24 hrs by sulforhodamine B assay; assay type: functional; conditions: read-out: GI
Carbonic anhydrase 1 = Carbonic anhydrase 1 (Homo sapiens, UniProt P00915); test: Inhibition of human CA1 preincubated for 15 mins by phenol red dye based stopped flow CO2 hydration assay
U-251 = test: Antiproliferative activity against human U-251 cells assessed as cell growth inhibition at 10 uM incubated for 24 hrs by sulforhodamine B assay; assay type: functional; conditions: read-out: GI
HCT-15 = test: Antiproliferative activity against human HCT-15 cells assessed as cell growth inhibition at 10 uM incubated for 24 hrs by sulforhodamine B assay; assay type: functional; conditions: read-out: GI
T47D [5] = test: Antiproliferative activity against human T47D cells assessed as cell growth inhibition at 10 uM incubated for 24 hrs by sulforhodamine B assay; assay type: functional; conditions: read-out: GI
RPMI-8226 = test: Antiproliferative activity against human RPMI-8226 cells assessed as cell growth inhibition at 10 uM incubated for 24 hrs by sulforhodamine B assay; assay type: functional; conditions: read-out: GI
OVCAR-4 = test: Antiproliferative activity against human OVCAR-4 cells assessed as cell growth inhibition at 10 uM incubated for 24 hrs by sulforhodamine B assay; assay type: functional; conditions: read-out: GI
A549 = test: Antiproliferative activity against human A549 cells assessed as cell growth inhibition at 10 uM incubated for 24 hrs by sulforhodamine B assay; assay type: functional; conditions: read-out: GI
KM12 = test: Antiproliferative activity against human KM12 cells assessed as cell growth inhibition at 10 uM incubated for 24 hrs by sulforhodamine B assay; assay type: functional; conditions: read-out: GI
PC-3 = test: Antiproliferative activity against human PC-3 cells assessed as cell growth inhibition at 10 uM incubated for 24 hrs by sulforhodamine B assay; assay type: functional; conditions: read-out: GI
Carbonic anhydrase 2 = Carbonic anhydrase 2 (Homo sapiens, UniProt P00918); test: Inhibition of human CA2 preincubated for 15 mins by phenol red dye based stopped flow CO2 hydration assay
MOLT-4 = test: Antiproliferative activity against human MOLT-4 cells assessed as cell growth inhibition at 10 uM incubated for 24 hrs by sulforhodamine B assay; assay type: functional; conditions: read-out: GI
SNB-75 = test: Antiproliferative activity against human SNB-75 cells assessed as cell growth inhibition at 10 uM incubated for 24 hrs by sulforhodamine B assay; assay type: functional; conditions: read-out: GI
RXF 393 = test: Antiproliferative activity against human RXF 393 cells assessed as cell growth inhibition at 10 uM incubated for 24 hrs by sulforhodamine B assay; assay type: functional; conditions: read-out: GI
NCI-H23 = test: Antiproliferative activity against human NCI-H23 cells assessed as cell growth inhibition at 10 uM incubated for 24 hrs by sulforhodamine B assay; assay type: functional; conditions: read-out: GI
HOP-92 = test: Antiproliferative activity against human HOP-92 cells assessed as cell growth inhibition at 10 uM incubated for 24 hrs by sulforhodamine B assay; assay type: functional; conditions: read-out: GI
HL-60 = test: Antiproliferative activity against human HL-60 cells assessed as cell growth inhibition at 10 uM incubated for 24 hrs by sulforhodamine B assay; assay type: functional; conditions: read-out: GI
MDA-MB-468 = test: Antiproliferative activity against human MDA-MB-468 cells assessed as cell growth inhibition at 10 uM incubated for 24 hrs by sulforhodamine B assay; assay type: functional; conditions: read-out: GI
MCF7 [6] = test: Antiproliferative activity against human MCF7 cells assessed as cell growth inhibition at 10 uM incubated for 24 hrs by sulforhodamine B assay; assay type: functional; conditions: read-out: GI
ACHN = test: Antiproliferative activity against human ACHN cells assessed as cell growth inhibition at 10 uM incubated for 24 hrs by sulforhodamine B assay; assay type: functional; conditions: read-out: GI
SNB-19 = test: Antiproliferative activity against human SNB-19 cells assessed as cell growth inhibition at 10 uM incubated for 24 hrs by sulforhodamine B assay; assay type: functional; conditions: read-out: GI
Hs-578T = test: Antiproliferative activity against human HS-578T cells assessed as cell growth inhibition at 10 uM incubated for 24 hrs by sulforhodamine B assay; assay type: functional; conditions: read-out: GI
DU-145 = test: Antiproliferative activity against human DU-145 cells assessed as cell growth inhibition at 10 uM incubated for 24 hrs by sulforhodamine B assay; assay type: functional; conditions: read-out: GI
LOX IMVI = test: Antiproliferative activity against human LOX IMVI cells assessed as cell growth inhibition at 10 uM incubated for 24 hrs by sulforhodamine B assay; assay type: functional; conditions: read-out: GI

Carbonic anhydrase 1, sequence (P00915 whole entry): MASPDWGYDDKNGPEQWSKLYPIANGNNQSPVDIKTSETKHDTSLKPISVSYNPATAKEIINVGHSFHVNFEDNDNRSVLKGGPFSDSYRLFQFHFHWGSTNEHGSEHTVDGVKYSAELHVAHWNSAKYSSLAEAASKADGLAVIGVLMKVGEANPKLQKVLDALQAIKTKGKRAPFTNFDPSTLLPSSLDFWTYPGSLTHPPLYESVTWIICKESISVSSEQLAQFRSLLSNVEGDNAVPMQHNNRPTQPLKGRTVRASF

| Compound | inhibition of growth at 10 µM (UO-31) | inhibition of growth at 10 µM (SR) | inhibition of growth at 10 µM (NCI-H522) | inhibition of growth at 10 µM (SF-539) | IC50 (MCF7 [1]) | Ki (Carbonic anhydrase 9) | inhibition of growth at 10 µM (CAKI-1) | IC50 (MDA-MB-231 [3]) | inhibition of growth at 10 µM (UACC-62) | inhibition of growth at 10 µM (K562) | IC50 (T47D [4]) | inhibition of growth at 10 µM (HCT-15) | Ki (Carbonic anhydrase 2) | also measured |
| --- | --- | --- | --- | --- | --- | --- | --- | --- | --- | --- | --- | --- | --- | --- |
| COc1ccc(C(=O)CSc2nc(Nc3ccc(S(N)(=O)=O)cc3)c(C#N)c(C(C)C)n2)cc1 | 16.5% | 11.7% | 5.22% | 5.08% | 19.8 µM | 0.0918 µM | 5% | 50.4 µM | 8.47% | 10.9% | 60 µM |  |  | inhibition of growth at 10 µM (MDA-MB-231 [2]): 5.52%; inhibition of growth at 10 µM (NCI-H226): 7.41% |
| NS(=O)(=O)c1cccc(Nc2cc(-c3ccccc3)nc(SCC(=O)c3ccc(Br)cc3)n2)c1 |  |  |  |  |  | 0.525 µM |  |  |  |  |  |  |  |  |
| COc1ccc(C(=O)CSc2nc(Nc3cccc(S(N)(=O)=O)c3)cc(-c3ccccc3)n2)cc1 | 16.4% | 23.7% | 6.62% |  | 30.9 µM | 0.3 µM | 7.16% | 42.5 µM | 8.31% | 12.7% | 28 µM | 13.8% | > 20 µM | inhibition of growth at 10 µM (Malme-3M): 7.42%; inhibition of growth at 10 µM (CCRF-CEM): 16.9%; Ki (Carbonic anhydrase 1): > 20 µM; inhibition of growth at 10 µM (MDA-MB-231 [2]): 6.45%; inhibition of growth at 10 µM (U-251): 6.41%; inhibition of growth at 10 µM (T47D [5]): 20.2%; inhibition of growth at 10 µM (RPMI-8226): 6.7%; inhibition of growth at 10 µM (OVCAR-4): 12.2%; inhibition of growth at 10 µM (A549): 7.98%; inhibition of growth at 10 µM (KM12): 6.88%; inhibition of growth at 10 µM (PC-3): 15.8%; inhibition of growth at 10 µM (MOLT-4): 26.2%; inhibition of growth at 10 µM (SNB-75): 12.3% |
| NS(=O)(=O)c1cccc(Nc2cc(-c3ccccc3)nc(SCC(=O)c3ccccc3)n2)c1 |  |  |  |  |  | 0.724 µM |  |  |  |  |  |  |  |  |
| COc1ccc(C(=O)CSc2nc(Nc3cccc(S(N)(=O)=O)c3)c(C#N)c(C(C)C)n2)cc1 | 20.4% | 11% | 6.43% | 7.32% |  | 0.0949 µM | 10.8% |  | 11.6% | 18.5% |  | 6.79% | > 20 µM | inhibition of growth at 10 µM (RXF 393): 10.2%; inhibition of growth at 10 µM (CCRF-CEM): 6.87%; inhibition of growth at 10 µM (NCI-H23): 11%; inhibition of growth at 10 µM (HOP-92): 11.6%; inhibition of growth at 10 µM (HL-60): 6.4%; inhibition of growth at 10 µM (MDA-MB-468): 8.74%; inhibition of growth at 10 µM (MCF7 [6]): 12.9%; inhibition of growth at 10 µM (T47D [5]): 14.2%; inhibition of growth at 10 µM (ACHN): 6.14%; inhibition of growth at 10 µM (RPMI-8226): 5.91%; inhibition of growth at 10 µM (PC-3): 7.35%; inhibition of growth at 10 µM (MOLT-4): 13.4%; inhibition of growth at 10 µM (SNB-19): 5.74% |
| Cc1ccc(-c2nc(SCC(=O)c3ccc(Br)cc3)nc(Nc3ccc(S(N)(=O)=O)cc3)c2C#N)cc1 | 22.4% | 11.4% |  | 17.1% |  | 8.74 µM | 13.7% |  |  | 8% |  | 11.3% | > 20 µM | inhibition of growth at 10 µM (Malme-3M): 8.67%; inhibition of growth at 10 µM (Hs-578T): 14.3%; Ki (Carbonic anhydrase 1): > 20 µM; inhibition of growth at 10 µM (NCI-H23): 6.49%; inhibition of growth at 10 µM (HOP-92): 40.4%; inhibition of growth at 10 µM (HL-60): < 5%; inhibition of growth at 10 µM (MCF7 [6]): 16.5%; inhibition of growth at 10 µM (DU-145): 47.5%; inhibition of growth at 10 µM (LOX IMVI): 11.8% |
| COc1ccc(OC)c(-c2nc(SCC(=O)c3ccccc3)nc(Nc3cccc(S(N)(=O)=O)c3)c2C#N)c1 |  |  |  |  |  | 5.05 µM |  |  |  |  |  |  | > 20 µM |  |
| O=c1[nH]cc(F)c(=O)[nH]1 [FLUOROURACIL] |  |  |  |  | 2.46 µM |  |  | 3.5 µM |  |  | 6.7 µM |  |  |  |
